Results reported in ChEMBL document CHEMBL1201862, “PubChem BioAssay data set” (2004).
Calls of active or inactive are those of the source.

Tests used:
[1] = biological target: Homeodomain-interacting protein kinase 2 (Homo sapiens, UniProt Q9H2X6); type: functional;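 also: measured within a kinome-wide kinase profiling panel, HIPK2 being one panel member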
[2] = biological target: Ribosomal protein S6 kinase alpha-3 (Homo sapiens, UniProt P51812); type: functional;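 also: measured within a kinome-wide profiling panel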
Ribosomal protein S6 kinase alpha-3, sequence (P51812 whole entry): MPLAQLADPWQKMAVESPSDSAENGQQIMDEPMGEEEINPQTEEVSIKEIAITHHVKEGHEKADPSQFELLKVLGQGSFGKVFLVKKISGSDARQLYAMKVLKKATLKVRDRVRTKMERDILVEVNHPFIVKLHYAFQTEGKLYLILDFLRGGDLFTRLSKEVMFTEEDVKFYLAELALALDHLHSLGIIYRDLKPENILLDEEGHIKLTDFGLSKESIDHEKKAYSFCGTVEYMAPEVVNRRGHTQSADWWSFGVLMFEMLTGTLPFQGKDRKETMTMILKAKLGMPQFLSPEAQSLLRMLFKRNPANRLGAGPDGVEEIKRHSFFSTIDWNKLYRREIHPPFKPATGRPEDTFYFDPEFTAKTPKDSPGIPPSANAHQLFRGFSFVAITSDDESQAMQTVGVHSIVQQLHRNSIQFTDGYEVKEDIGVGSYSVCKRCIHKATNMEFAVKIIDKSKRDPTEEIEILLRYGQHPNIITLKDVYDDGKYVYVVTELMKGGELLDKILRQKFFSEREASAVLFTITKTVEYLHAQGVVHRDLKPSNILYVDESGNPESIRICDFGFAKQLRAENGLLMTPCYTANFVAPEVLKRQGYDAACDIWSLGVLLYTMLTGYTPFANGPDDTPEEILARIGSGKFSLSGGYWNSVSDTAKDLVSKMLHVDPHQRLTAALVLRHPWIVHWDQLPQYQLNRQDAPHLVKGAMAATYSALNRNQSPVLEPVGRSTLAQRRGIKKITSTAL

[3] = biological target: Mast/stem cell growth factor receptor Kit (Homo sapiens, UniProt P10721); type: functional;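 also: KIT entry within a kinase panel assay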
Mast/stem cell growth factor receptor Kit, sequence (P10721 whole entry): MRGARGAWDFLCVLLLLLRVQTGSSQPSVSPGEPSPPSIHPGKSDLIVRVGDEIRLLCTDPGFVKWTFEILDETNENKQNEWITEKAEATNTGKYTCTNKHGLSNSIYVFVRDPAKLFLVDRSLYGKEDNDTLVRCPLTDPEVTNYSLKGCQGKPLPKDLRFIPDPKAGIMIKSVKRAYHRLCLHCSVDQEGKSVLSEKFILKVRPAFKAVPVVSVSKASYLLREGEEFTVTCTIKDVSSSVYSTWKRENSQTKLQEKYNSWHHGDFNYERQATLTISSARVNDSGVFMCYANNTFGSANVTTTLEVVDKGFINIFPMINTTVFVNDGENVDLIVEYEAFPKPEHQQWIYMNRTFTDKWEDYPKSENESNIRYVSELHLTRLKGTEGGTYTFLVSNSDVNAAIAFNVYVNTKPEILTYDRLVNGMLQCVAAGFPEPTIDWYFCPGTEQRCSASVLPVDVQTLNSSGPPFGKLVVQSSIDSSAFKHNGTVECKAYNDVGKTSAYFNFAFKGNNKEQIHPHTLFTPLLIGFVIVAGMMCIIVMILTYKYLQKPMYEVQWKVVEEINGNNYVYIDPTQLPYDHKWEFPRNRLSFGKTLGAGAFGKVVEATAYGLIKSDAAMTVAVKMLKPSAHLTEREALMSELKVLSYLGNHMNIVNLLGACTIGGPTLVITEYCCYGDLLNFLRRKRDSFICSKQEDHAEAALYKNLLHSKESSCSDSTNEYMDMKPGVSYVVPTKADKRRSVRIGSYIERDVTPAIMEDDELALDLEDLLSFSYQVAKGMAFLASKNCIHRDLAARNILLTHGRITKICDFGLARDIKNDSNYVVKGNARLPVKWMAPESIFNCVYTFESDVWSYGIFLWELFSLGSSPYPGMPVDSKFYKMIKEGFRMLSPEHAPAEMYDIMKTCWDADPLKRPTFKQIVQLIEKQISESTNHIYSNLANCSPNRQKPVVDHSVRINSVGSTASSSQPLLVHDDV

[4] = biological target: Calcium/calmodulin-dependent protein kinase type II subunit delta (Homo sapiens, UniProt Q13557); type: functional
Calcium/calmodulin-dependent protein kinase type II subunit delta, sequence (Q13557 whole entry): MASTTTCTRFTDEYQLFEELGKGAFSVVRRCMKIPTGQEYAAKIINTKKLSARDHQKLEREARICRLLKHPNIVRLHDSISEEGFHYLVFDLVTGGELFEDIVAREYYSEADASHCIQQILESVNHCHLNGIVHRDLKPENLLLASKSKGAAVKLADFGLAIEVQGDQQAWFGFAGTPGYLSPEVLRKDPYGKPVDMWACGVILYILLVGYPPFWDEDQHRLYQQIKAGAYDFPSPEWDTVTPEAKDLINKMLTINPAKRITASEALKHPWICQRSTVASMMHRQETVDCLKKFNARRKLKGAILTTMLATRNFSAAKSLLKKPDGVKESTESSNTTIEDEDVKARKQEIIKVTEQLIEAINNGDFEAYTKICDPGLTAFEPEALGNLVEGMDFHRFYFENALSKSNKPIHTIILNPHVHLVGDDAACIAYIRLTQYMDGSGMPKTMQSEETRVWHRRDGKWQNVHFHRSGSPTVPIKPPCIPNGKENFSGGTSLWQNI

[5] = biological target: T1, Ubiquitin-conjugating enzyme E2 N (Homo sapiens, UniProt P61088); type: functional;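 also: Dose-response confirmation in a TR-FRET assay detecting UBC13-driven polyubiquitin chain formation, inhibition measured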
T1 sequence (P61088 whole entry): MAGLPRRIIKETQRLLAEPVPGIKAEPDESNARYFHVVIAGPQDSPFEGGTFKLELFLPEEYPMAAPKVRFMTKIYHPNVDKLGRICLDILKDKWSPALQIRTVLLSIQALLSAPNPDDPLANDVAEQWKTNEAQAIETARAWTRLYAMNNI

[6] = inhibitors of intracellular T. cruzi replication, confirmation, NIH3T3 host cells, beta-gal luminescence (AID 2044); type: functional, cell-based;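 also: intracellular parasites grown in NIH/3T3 mouse fibroblasts as host cells; luminescent beta-galactosidase reporter signal from transgenic T. cruzi replicating inside host cells; inhibitors lower the luminescence signal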
[7] = biological target: T2, Tyrosyl-DNA phosphodiesterase 2 (Homo sapiens, UniProt O95551); assay: human TDP2 enzyme inhibitors, dose response, biochemical, epi absorbance, IC50 (AID 743297)
T2 sequence (O95551 whole entry): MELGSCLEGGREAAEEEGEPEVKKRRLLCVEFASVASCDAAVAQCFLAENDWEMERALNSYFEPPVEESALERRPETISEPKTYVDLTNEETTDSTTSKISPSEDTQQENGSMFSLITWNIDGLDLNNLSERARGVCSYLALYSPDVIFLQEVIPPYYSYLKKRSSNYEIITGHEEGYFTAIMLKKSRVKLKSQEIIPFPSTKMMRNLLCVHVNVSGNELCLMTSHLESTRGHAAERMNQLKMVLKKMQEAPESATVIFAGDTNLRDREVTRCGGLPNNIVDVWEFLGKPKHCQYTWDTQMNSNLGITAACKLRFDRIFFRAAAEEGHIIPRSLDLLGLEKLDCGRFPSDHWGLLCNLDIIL

CAAX prenyl protease 2 = CAAX prenyl protease 2 (Saccharomyces cerevisiae S288c, UniProt Q03530); type: biochemical
CAAX prenyl protease 2, sequence (Q03530 whole entry): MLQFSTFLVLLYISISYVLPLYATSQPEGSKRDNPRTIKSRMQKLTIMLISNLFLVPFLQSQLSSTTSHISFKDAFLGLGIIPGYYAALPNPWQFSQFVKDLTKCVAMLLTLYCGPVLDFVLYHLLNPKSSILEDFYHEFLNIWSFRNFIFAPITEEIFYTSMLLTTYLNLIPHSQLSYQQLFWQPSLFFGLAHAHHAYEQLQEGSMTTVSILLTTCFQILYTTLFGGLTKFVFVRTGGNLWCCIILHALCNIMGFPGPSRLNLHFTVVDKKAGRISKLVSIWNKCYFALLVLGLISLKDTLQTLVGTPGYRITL

BJ = assay: cytotoxicity toward Ras-transformed BJeLR fibroblasts, dose response, cell-based, alamar blue fluorescence, cherrypicked samples (AID 2631); type: functional; conditions: Homo sapiens;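 also: confirmatory dose-response assay in RAS-dependent BJ fibroblasts engineered with TERT, LT and ST, with cytotoxicity read by fluorescence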
CAAX prenyl protease 1 = biological target: T3, CAAX prenyl protease 1 (Saccharomyces cerevisiae S288c, UniProt P47154); assay: Ste24 protease inhibitors, dose response, biochemical, S. cerevisiae, plate reader, cherry-pick (AID 488815)
T3 sequence (P47154 whole entry): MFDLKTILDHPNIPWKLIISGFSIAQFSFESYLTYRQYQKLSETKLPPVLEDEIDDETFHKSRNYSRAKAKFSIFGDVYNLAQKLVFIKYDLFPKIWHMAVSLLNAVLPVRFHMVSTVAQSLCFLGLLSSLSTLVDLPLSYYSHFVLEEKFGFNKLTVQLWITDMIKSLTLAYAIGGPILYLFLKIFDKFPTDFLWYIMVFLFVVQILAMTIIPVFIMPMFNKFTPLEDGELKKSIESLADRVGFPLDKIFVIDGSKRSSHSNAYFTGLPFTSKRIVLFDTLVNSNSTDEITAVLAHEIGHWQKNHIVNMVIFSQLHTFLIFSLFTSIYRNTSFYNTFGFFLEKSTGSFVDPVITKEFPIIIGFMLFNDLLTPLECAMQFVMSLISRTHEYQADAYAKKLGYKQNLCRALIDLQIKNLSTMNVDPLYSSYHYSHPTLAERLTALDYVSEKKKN

[8] = HEK293T cytotoxicity, dose response, cytotoxicity control for miR-122 modulator project, cell-based, activator set, cherry-pick (AID 720690); type: functional;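 also: HEK293T human cells scored for general mammalian cytotoxicity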
[9] = biological target: T4, Histone-lysine N-methyltransferase NSD2 (Homo sapiens, UniProt O96028); type: biochemical
T4 sequence (O96028 whole entry): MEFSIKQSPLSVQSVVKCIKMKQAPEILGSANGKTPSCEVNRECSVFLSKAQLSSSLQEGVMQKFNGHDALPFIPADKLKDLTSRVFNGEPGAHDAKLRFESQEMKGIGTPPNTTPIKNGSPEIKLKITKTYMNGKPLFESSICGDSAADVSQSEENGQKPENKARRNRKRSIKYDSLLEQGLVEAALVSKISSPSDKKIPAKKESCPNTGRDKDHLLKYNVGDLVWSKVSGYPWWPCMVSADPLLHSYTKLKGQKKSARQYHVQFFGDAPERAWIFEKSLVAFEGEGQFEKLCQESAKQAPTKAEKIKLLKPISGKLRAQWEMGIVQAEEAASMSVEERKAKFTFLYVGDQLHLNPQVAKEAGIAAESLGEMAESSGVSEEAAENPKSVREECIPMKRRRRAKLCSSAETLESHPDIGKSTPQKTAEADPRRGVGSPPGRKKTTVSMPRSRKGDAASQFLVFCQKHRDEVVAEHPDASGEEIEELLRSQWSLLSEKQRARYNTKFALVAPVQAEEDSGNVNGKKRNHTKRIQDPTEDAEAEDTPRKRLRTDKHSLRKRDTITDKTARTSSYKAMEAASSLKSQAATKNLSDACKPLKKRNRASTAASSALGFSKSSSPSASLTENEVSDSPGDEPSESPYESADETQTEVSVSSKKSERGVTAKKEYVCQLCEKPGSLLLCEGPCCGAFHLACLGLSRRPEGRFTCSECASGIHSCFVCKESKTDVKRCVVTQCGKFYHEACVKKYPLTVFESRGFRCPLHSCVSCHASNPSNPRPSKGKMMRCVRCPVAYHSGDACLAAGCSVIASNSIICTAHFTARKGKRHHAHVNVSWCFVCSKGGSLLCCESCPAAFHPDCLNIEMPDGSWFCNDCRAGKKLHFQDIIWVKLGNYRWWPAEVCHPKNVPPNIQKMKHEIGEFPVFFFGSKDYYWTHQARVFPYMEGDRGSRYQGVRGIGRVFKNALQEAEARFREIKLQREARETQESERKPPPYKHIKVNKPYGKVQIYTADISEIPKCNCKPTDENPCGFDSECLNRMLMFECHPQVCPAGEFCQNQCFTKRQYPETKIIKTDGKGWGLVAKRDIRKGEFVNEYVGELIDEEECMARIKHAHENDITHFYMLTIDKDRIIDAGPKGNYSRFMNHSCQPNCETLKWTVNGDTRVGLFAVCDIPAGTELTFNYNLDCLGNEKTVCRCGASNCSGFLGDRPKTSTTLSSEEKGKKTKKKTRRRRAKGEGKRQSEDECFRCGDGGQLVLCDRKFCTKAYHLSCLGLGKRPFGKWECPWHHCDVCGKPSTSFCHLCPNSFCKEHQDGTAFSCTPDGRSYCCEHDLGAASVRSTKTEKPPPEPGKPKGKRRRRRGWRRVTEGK

[10] = biological target: Serine/threonine-protein kinase Chk1 (Homo sapiens, UniProt O14757); type: functional;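 also: measured as one member of a kinome-wide kinase profiling panel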
Serine/threonine-protein kinase Chk1, sequence (O14757 whole entry): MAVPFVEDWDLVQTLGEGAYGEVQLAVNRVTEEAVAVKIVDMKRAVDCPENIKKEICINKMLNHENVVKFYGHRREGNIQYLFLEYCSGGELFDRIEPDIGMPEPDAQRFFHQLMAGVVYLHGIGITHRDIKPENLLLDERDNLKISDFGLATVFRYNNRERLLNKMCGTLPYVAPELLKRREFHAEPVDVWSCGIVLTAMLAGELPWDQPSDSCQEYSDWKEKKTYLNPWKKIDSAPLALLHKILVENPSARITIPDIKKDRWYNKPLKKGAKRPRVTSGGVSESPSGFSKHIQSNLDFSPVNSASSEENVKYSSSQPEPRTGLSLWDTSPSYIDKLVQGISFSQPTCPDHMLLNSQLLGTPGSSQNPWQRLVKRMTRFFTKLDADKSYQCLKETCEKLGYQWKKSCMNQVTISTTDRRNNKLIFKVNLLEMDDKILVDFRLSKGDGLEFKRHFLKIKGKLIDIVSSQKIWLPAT

Homeodomain-interacting protein kinase 2, sequence (Q9H2X6 whole entry): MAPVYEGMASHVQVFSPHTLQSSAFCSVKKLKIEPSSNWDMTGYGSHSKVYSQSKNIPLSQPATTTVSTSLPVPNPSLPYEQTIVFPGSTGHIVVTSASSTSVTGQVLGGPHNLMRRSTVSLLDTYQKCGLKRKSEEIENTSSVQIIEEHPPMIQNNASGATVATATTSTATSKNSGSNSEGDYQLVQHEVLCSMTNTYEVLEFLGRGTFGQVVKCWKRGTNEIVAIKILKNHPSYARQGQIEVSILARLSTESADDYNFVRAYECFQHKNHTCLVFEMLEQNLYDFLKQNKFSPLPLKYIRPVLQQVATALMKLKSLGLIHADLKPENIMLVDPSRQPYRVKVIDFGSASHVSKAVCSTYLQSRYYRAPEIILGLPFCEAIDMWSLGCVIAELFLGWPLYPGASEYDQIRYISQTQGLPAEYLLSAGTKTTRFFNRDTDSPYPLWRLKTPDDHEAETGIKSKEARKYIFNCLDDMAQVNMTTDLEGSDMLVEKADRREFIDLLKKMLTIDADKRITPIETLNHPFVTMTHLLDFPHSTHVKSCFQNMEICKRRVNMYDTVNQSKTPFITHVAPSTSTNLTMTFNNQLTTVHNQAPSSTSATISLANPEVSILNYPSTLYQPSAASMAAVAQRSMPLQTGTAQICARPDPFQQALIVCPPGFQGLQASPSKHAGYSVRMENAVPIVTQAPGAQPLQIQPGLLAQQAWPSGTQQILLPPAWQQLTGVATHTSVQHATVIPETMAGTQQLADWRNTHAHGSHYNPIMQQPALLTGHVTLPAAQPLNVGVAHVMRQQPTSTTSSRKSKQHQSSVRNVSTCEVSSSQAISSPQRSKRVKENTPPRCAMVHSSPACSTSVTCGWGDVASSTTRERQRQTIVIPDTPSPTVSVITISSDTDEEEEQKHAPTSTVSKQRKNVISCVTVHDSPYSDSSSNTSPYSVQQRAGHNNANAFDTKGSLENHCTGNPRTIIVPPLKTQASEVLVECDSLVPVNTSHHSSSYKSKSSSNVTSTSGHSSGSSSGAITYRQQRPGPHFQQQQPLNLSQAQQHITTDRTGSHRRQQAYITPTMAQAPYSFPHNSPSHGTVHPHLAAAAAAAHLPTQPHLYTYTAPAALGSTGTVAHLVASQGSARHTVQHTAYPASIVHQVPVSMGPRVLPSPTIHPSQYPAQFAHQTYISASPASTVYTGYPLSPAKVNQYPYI

With `NC1CCC(Nc2nc(Cl)cc(-c3c[nH]c4ncccc34)n2)CC1` (stereo unspecified) the Ki [1] was 0.0398 µM (active), the pKi [1] was 7.4 and the Ki [2] was 0.0126 µM (active). For the same compound, the pKi [2] was 7.9, the Ki [3] was > 3.98 µM (inactive) and the Ki [4] was 0.251 µM (active). For the same compound, the pKi [4] was 6.6.
For `CCCCCCCCCCCCCCCC[N+](C)(C)C`, the IC50 [5] was > 20 µM (inactive).
With `CC(C)CC(=O)NC(c1cccs1)c1ccc2cccnc2c1O` (stereo unspecified) the EC50 [6] was 0.489 µM (active).
For `Cc1ccccc1-c1cc2c(nn1)-c1ccccc1C2=O`, the IC50 [7] was 32 µM (inactive).
With `OC(CNCCC1C=Nc2ccccc21)Cn1c2ccc(Cl)cc2c2cc(Cl)ccc21` (stereo unspecified) the AC50 (CAAX prenyl protease 2) was 8.21 µM (active), the EC50 (BJ) was 4.36 µM (inconclusive) and the AC50 (CAAX prenyl protease 1) was 4.42 µM (active). For the same compound, the AC50 [8] was 6.52 µM (active).
For `COc1ccc(C(=O)c2nccc3cc(OC)c(OC)cc23)cc1OC`, the AC50 [9] was 6.77 µM (active).
In the case of `O=C(O)C1CN(Cc2ccc(OCc3ccccc3)cc2Cl)C1`, the Ki [10] is reported as > 3.16 µM (inactive).
